Data taken from patent US20240116985A1, “STAPLED PEPTIDES AND METHODS THEREOF” (priority 2020, published 2024).
Converted amounts (≈) assume the structure as drawn. Read-outs that look alike come from different tables or passages of the source.

Tests used:
[1] = molecular target: T1, full-length beta-Catenin (Uniprot ID P35222) (Homo sapiens, UniProt P35222); assay: Fluorescence polarization IC50 (beta-catenin / 5FAM-TCF4 10-53 competition); assay type: binding
T1 construct: 10 nM full-length beta-Catenin (Uniprot ID P35222)
T1 sequence (P35222 1-781): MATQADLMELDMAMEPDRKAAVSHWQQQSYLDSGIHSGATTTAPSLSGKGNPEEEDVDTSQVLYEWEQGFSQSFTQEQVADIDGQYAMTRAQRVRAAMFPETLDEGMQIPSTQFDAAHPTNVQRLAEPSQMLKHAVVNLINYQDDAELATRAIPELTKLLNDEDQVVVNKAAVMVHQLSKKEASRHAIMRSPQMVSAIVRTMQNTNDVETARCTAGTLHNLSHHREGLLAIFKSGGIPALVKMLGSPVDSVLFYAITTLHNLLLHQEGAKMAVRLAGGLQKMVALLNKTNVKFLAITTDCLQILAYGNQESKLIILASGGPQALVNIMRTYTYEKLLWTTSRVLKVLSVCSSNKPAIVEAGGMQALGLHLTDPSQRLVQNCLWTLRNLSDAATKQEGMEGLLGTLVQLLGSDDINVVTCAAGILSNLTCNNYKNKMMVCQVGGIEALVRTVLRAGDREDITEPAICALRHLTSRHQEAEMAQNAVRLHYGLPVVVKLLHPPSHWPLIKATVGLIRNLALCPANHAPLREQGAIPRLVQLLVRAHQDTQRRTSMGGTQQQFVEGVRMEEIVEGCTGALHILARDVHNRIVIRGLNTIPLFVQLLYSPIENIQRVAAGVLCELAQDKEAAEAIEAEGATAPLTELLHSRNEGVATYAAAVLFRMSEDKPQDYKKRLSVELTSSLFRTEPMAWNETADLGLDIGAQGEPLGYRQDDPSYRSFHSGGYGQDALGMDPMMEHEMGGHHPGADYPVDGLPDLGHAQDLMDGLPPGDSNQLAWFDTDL

CHI Log D procedure = assay type: physicochemical; settings: for chromatographic logD: pH 7.4, CHI Log D; for CHI Log D: pH 7.4
Solubility in PBS = assay type: physicochemical
Outline: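 Solubility is derived from HPLC peak areas: the ratio of the PBS supernatant peak to a 50 μM DMSO peptide peak, times 50 uM.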

[2] = fluorescence polarization, read-out: beta-Catenin FP IC50

SMILES	IC50 [1, 2]	chromatographic logD (CHI Log D procedure)	Solubility (Solubility in PBS; Solubility (uM))	IC50 ([1]; read-out: FP EC50)	CHI Log D (CHI Log D procedure)	Solubility (Solubility in PBS)
CC(=O)N1CCC[C@]12CC=CCCCC1(CCCC=CCCCCCC[C@@](C)(C(=O)N[C@@H](CCc3ccccc3)C(=O)N[C@@H](Cc3csc4ccccc34)C(=O)N[C@@H](CCC(N)=O)C(N)=O)NC(=O)[C@H](CC(N)=O)NC(=O)[C@H](Cc3ccccc3)NC(=O)[C@H](C)NC(=O)[C@H](C)NC(=O)[C@H](CCC(=O)O)NC(=O)[C@H](CC(=O)O)NC1=O)NC(=O)[C@H](C)NC(=O)[C@H](CC(=O)O)NC2=O (stereo partly drawn) [I-442, Ac-PL3-Asp-Ala-B5-Asp-Glu-Ala-Ala-Phe-Asn-S8-hPhe-BztA-Gln-NH2]	4480 nM	–	–	4480 nM	2.098	40 µM (≈ 73.6 µg/mL)
CC(=O)N1CCC[C@]12CC=CCCCC1(CCCC=CCCCCCC[C@@](C)(C(=O)N[C@@H](CCc3ccccc3)C(=O)N[C@@H](Cc3csc4ccccc34)C(=O)N[C@@H](CCC(N)=O)C(N)=O)NC(=O)[C@H](CC(N)=O)NC(=O)[C@H](Cc3ccccc3)NC(=O)[C@H](C)NC(=O)[C@H](C)NC(=O)[C@H](CCC(=O)O)NC(=O)[C@H](CC(=O)O)NC1=O)NC(=O)[C@H](C)NC(=O)[C@H](CC(=O)O)NC2=O (stereo partly drawn) [I-443, Ac-PL3-Asp-Ala-B5-Asp-Glu-Ala-Ala-Phe-Asn-S8-hPhe-BztA-Gln-NH2]	2130 nM	–	–	2130 nM	2.128	50 µM (≈ 92.1 µg/mL)
CC(=O)N1CCC[C@]12CC=CCCCC1(CCCC=CCCCCCC[C@@](C)(C(=O)N[C@@H](Cc3ccccc3)C(=O)N[C@@H](Cc3csc4ccccc34)C(=O)N[C@@H](CCC(N)=O)C(N)=O)NC(=O)[C@H](CC(N)=O)NC(=O)[C@H](Cc3ccccc3)NC(=O)[C@H](C)NC(=O)[C@H](C)NC(=O)[C@H](Cc3nn[nH]n3)NC(=O)[C@H](CC(=O)O)NC1=O)NC(=O)[C@H](C)NC(=O)[C@H](CC(=O)O)NC2=O (stereo partly drawn) [I-444, Ac-PL3-Asp-Ala-B5-Asp-Tetz-Ala-Ala-Phe-Asn-S8-Phe-BztA-Gln-NH2]	80 nM	1.99	–	–	–	50 µM (≈ 91.9 µg/mL)
CC(=O)N1CCC[C@]12CC=CCCCC1(CCCC=CCCCCCC[C@@](C)(C(=O)N[C@@H](Cc3ccccc3)C(=O)N[C@@H](Cc3csc4ccccc34)C(=O)N[C@@H](CCC(N)=O)C(N)=O)NC(=O)[C@H](CC(N)=O)NC(=O)[C@H](Cc3ccccc3)NC(=O)[C@H](C)NC(=O)[C@H](C)NC(=O)[C@H](CC(=O)O)NC(=O)[C@H](Cc3nn[nH]n3)NC1=O)NC(=O)[C@H](C)NC(=O)[C@H](CC(=O)O)NC2=O (stereo partly drawn) [I-445, Ac-PL3-Asp-Ala-B5-Tetz-Asp-Ala-Ala-Phe-Asn-S8-Phe-BztA-Gln-NH2]	4960 nM	2.05	43 µM (≈ 79 µg/mL)	–	–	–
CC(=O)N1CCC[C@]12CC=CCCCC1(CCCC=CCCCCCC[C@@](C)(C(=O)N[C@@H](Cc3ccccc3)C(=O)N[C@@H](Cc3csc4ccccc34)C(=O)N[C@@H](CCC(N)=O)C(N)=O)NC(=O)[C@H](CC(N)=O)NC(=O)[C@H](Cc3ccsc3)NC(=O)[C@H](C)NC(=O)[C@H](C)NC(=O)[C@H](CCC(=O)O)NC(=O)[C@H](CC(=O)O)NC1=O)NC(=O)[C@H](C)NC(=O)[C@H](CC(=O)O)NC2=O (stereo partly drawn) [I-448, Ac-PL3-Asp-Ala-B5-Asp-Glu-Ala-Ala-3Thi-Asn-S8-Phe-BztA-Gln-NH2]	92 nM	–	–	92 nM	1.976	50 µM (≈ 91.7 µg/mL)
CC(=O)N1CCC[C@]12CC=CCCCC1(CCCC=CCCCCCC[C@@](C)(C(=O)N[C@@H](Cc3ccccc3)C(=O)N[C@@H](Cc3csc4ccccc34)C(=O)N[C@@H](CCC(N)=O)C(N)=O)NC(=O)[C@H](CC(N)=O)NC(=O)[C@H](Cc3ccsc3)NC(=O)[C@H](C)NC(=O)[C@H](C)NC(=O)[C@H](CCC(=O)O)NC(=O)[C@H](CC(=O)O)NC1=O)NC(=O)[C@H](C)NC(=O)[C@H](CC(=O)O)NC2=O (stereo partly drawn) [I-449, Ac-PL3-Asp-Ala-B5-Asp-Glu-Ala-Ala-3Thi-Asn-S8-Phe-BztA-Gln-NH2]	53 nM	–	–	53 nM	1.998	30 µM (≈ 55 µg/mL)
CC(=O)N1CCC[C@]12CC=CCCCC1(CCCC=CCCCCCC[C@@](C)(C(=O)N[C@@H](Cc3cccc(F)c3)C(=O)N[C@@H](Cc3c[nH]c4ccccc34)C(=O)N[C@@H](CCC(N)=O)C(N)=O)NC(=O)[C@H](CCC(N)=O)NC(=O)[C@H](Cc3cccs3)NC(=O)[C@H](C)NC(=O)[C@H](C)NC(=O)[C@H](CCC(=O)O)NC(=O)[C@H](CC(=O)O)NC1=O)NC(=O)[C@H](C)NC(=O)[C@H](CC(=O)O)NC2=O (stereo partly drawn) [I-450, Ac-PL3-Asp-Ala-B5-Asp-Glu-Ala-Ala-2Thi-Gln-S8-3FF-Trp-Gln-NH2]	3720 nM	1.88	–	–	–	50 µM (≈ 92.4 µg/mL)

More lines, in order of falling IC50 [1, 2], values ahead:

IC50 [1, 2]	chromatographic logD (CHI Log D procedure)	Solubility (Solubility in PBS; Solubility (uM))	IC50 ([1]; read-out: FP EC50)	CHI Log D (CHI Log D procedure)	Solubility (Solubility in PBS)	SMILES
1660 nM	–	–	1660 nM	1.917	50 µM (≈ 92.4 µg/mL)	CC(=O)N1CCC[C@]12CC=CCCCC1(CCCC=CCCCCCC[C@@](C)(C(=O)N[C@@H](Cc3cccc(F)c3)C(=O)N[C@@H](Cc3c[nH]c4ccccc34)C(=O)N[C@@H](CCC(N)=O)C(N)=O)NC(=O)[C@H](CCC(N)=O)NC(=O)[C@H](Cc3ccsc3)NC(=O)[C@H](C)NC(=O)[C@H](C)NC(=O)[C@H](CCC(=O)O)NC(=O)[C@H](CC(=O)O)NC1=O)NC(=O)[C@H](C)NC(=O)[C@H](CC(=O)O)NC2=O (stereo partly drawn) [I-452, Ac-PL3-Asp-Ala-B5-Asp-Glu-Ala-Ala-3Thi-Gln-S8-3FF-Trp-Gln-NH2]
133 nM	2	38 µM (≈ 71.1 µg/mL)	–	–	–	CC(=O)N1CCC[C@]12CC=CCCCC1(CCCC=CCCCCCC[C@@](C)(C(=O)N[C@@H](Cc3ccccc3[N+](=O)[O-])C(=O)N[C@@H](Cc3csc4ccccc34)C(=O)N[C@@H](CCC(N)=O)C(N)=O)NC(=O)[C@H](CC(N)=O)NC(=O)[C@H](Cc3ccccc3)NC(=O)[C@H](C)NC(=O)[C@H](C)NC(=O)[C@H](CCC(=O)O)NC(=O)[C@H](CC(=O)O)NC1=O)NC(=O)[C@H](C)NC(=O)[C@H](CC(=O)O)NC2=O (stereo partly drawn) [I-441, Ac-PL3-Asp-Ala-B5-Asp-Glu-Ala-Ala-Phe-Asn-S8-2NO2F-BztA-Gln-NH2]
130 nM	–	–	130 nM	1.97	44 µM (≈ 80.7 µg/mL)	CC(=O)N1CCC[C@]12CC=CCCCC1(CCCC=CCCCCCC[C@@](C)(C(=O)N[C@@H](Cc3ccccc3)C(=O)N[C@@H](Cc3csc4ccccc34)C(=O)N[C@@H](CCC(N)=O)C(N)=O)NC(=O)[C@H](CC(N)=O)NC(=O)[C@H](Cc3cccs3)NC(=O)[C@H](C)NC(=O)[C@H](C)NC(=O)[C@H](CCC(=O)O)NC(=O)[C@H](CC(=O)O)NC1=O)NC(=O)[C@H](C)NC(=O)[C@H](CC(=O)O)NC2=O (stereo partly drawn) [I-446, Ac-PL3-Asp-Ala-B5-Asp-Glu-Ala-Ala-2Thi-Asn-S8-Phe-BztA-Gln-NH2]
74 nM	–	–	74 nM	1.996	50 µM (≈ 91.7 µg/mL)	CC(=O)N1CCC[C@]12CC=CCCCC1(CCCC=CCCCCCC[C@@](C)(C(=O)N[C@@H](Cc3ccccc3)C(=O)N[C@@H](Cc3csc4ccccc34)C(=O)N[C@@H](CCC(N)=O)C(N)=O)NC(=O)[C@H](CC(N)=O)NC(=O)[C@H](Cc3cccs3)NC(=O)[C@H](C)NC(=O)[C@H](C)NC(=O)[C@H](CCC(=O)O)NC(=O)[C@H](CC(=O)O)NC1=O)NC(=O)[C@H](C)NC(=O)[C@H](CC(=O)O)NC2=O (stereo partly drawn) [I-447, Ac-PL3-Asp-Ala-B5-Asp-Glu-Ala-Ala-2Thi-Asn-S8-Phe-BztA-Gln-NH2]
